# From US7951364B2, “CaR receptor as a mediator of migratory cell chemotaxis and/or chemokinesis” (The General Hospital Corporation, priority 2000, dated 2011)
# “And” between values parts separate entries of the source, which are not always exact repeats. Equal values may be shown once.
# Legend:
# [1] = system: monocytes (Mac-1 positive mononuclear cells); experiment: Biologic activity in vivo: subcutaneous injection, monocyte infiltration at injection site; parameters: species or system C57BL/6 mice; details: tissue excised 18 hours later, CaCl2 5.0 mM, NPS R-467 10 μM
# Method: Biologic activity of ionic calcium in vivo. C57BL/6 mice (Jackson Laboratories) were injected subcutaneously at a marked, shaved spot on the abdomen with 20 μl of 5 mM CaCl2 or 20 μl of MCP-1 at a concentration of 10 ng/ml, with a combination of MCP-1 and 5 mM CaCl2 or with 10 μM NPS R-467 in PBS. Control mice were injected subcutaneously with 20 μl PBS alone. All subcutaneously injected agents contained less than 0.004 ng/ml of LPS by the limulus assay (Sigma) as previously described (Bleul, C. C., et al., J Exp Med, 1996, 184:1101-1109). Mice were sacrificed by CO2 asphyxiation 18 hours after injection, and injection sites were excised, snap-frozen and 4 μm cryosections were obtained and stained with hematoxylin and eosin. Immunocytochemistry was performed on the frozen sections using alkaline phosphatase-conjugated Mac-1 antibody (Pharmingen) as previously described and assessed by light microscopy (Bleul, C. C., et al., supra).
# CD14^+ monocytes = experiment: Transmigration assay (monocyte chemotaxis, transwell); format: cell-based, human
# Method: Preparation of peripheral blood CD14^+ monocytes. Low density cells were isolated from human and mouse peripheral blood using Ficoll-Hypaque (Pharmacia, Piscataway, N.J.). CD14^+ monocytes were purified by sorting on FACSVantage (Becton Dickinson, San Jose, Calif.) based on CD14 expression. Purified cells were incubated in either calcium-free medium (Hanks' Balanced Salt Solution 1×, CellGro, Hermdon. VA) or Iscove's Medium 1×(Mod) (CellGro, Herndon, Va.) which contains 1.5 mM Ca++. […] Cells were incubated for up to 24 hours in 5% CO2 humidified air. Monocytes were then detached from the plate using a cell scraper. All calcium concentrations indicated in the presentation of the data represent the total Ca^++ present in the basal medium plus any added Ca^++.
# Transmigration assays. Transwells (5 μm pore size polycarbonate membrane, 12 mm diameter) (Costar, Corning, N.Y.) were used to assess cell migration using an established methodology (25). The concentration of Ca^++ in IMDM (CellGro, Herndon, Va.) in the upper and lower chambers of the transwell were adjusted according to a checkerboard analysis of chemotaxis. Calcium concentrations varied from 0 mM to 6.5 mM. Purified monocytes (1×10^4) were then placed in the top chamber with 150 μl of IMDM (CellGro, Hemdon, Va.). 500 μl of the medium was added to the bottom of the well and supplemented with varying concentrations of Ca^++ or with Ca^++ plus 10 ng/ml of MCP-1, 100 ng/ml of SDF-1α or 10 ng/ml of MIP-1α (PeproTech, Rocky Hills, N.Y.). Cells were incubated at 37° C. for 3 hours. To study inhibition of chemotaxis, cells were subsequently incubated with wortmannin (1 μM for 20 minutes at 37° C.), herbimycin (1 μM for 20 minutes at 37° C.) or genistein (1 μg/ml for 20 minutes at 37° C.), before their use in transmigration assays. At the end of the experiment, cells were then harvested from the lower chamber and counted using a hemocytometer.
# [2] = target: calcium-sensing receptor (CaR) (Homo sapiens, UniProt P41180); details: cited from earlier work
# Chain of calcium-sensing receptor (CaR) (P41180 20-1078): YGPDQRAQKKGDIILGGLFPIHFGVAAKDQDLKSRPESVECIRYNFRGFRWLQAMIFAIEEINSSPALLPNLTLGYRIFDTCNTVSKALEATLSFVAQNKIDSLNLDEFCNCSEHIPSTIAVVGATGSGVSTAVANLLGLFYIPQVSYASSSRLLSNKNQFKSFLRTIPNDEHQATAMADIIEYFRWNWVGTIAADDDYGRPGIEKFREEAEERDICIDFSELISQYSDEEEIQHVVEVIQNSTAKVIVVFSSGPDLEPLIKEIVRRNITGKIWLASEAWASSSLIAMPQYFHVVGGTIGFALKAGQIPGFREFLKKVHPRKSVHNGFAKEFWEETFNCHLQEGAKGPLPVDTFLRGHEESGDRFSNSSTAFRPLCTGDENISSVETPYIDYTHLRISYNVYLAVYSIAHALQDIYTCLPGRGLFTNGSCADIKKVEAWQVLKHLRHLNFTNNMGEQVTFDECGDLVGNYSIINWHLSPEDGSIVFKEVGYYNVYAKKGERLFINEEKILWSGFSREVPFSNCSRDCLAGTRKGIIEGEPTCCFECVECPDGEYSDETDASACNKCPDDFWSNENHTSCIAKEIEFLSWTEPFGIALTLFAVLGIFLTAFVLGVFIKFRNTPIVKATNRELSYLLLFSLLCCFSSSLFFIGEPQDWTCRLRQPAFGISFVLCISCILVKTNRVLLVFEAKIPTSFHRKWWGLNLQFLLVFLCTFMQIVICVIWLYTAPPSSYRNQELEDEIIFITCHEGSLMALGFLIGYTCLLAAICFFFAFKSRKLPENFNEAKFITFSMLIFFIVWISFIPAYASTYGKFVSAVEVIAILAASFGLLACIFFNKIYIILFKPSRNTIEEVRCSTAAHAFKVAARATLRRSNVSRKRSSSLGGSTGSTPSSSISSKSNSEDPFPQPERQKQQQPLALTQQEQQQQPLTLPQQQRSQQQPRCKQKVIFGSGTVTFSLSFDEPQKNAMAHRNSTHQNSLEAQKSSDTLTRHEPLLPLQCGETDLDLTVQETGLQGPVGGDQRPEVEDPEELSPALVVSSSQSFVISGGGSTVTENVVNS
# human CD34^+ cells = experiment: In vitro assays of human CD34^+ hematopoietic progenitor cells; format: cell-based; details: increased Ca^2+ concentration
# Source text: Calcium ions effect Hematopoietic Progenitor Cells. We also assessed the effects of calcium, through its interaction with the calcium sensing receptor (CaR) using in vitro assays of human CD34^+ cells. […] Therefore, calcium participates in maintaining candidate stem cells in a primitive, undifferentiated state. […] This was accompanied by a decrease in the level of LTC-ICs in the bone marrow, but an increase in the level of CFU-Cs, with a converse increase in hematopoietic stem cells in is the peripheral blood.
# CCR-2 = experiment: Chemokine receptor expression on monocytes by flow cytometry: CCR-2; format: cell-based, human
# Method: Chemokine receptor expression and flow cytometric analysis.
# Table 1: Exposure of CD14^+ monocytes to Ca^++ enhances CCR2 expression in a dose dependent manner. Monocytes were exposed to varying concentrations of Ca^++ and to the selective CaR activator, NPS R-467 (1 μM), or to NPS S-467 (1 μM) in the presence of 1.5 mM Ca^++. The median fluorescence intensity for CCR2 expression was measured for each Ca^++ concentration and in the presence of NPS R-467 or S-467. Mean values +/−s.e.m. from three independent experiments are shown.
structure (smiles),measurement,setting,value
"[Ca+2].[Cl-].[Cl-] [Ca^++, calcium chloride]",Accumulation of mononuclear cells staining positive for Mac-1 at injection site,[1],Accumulation
same,Ca^++ concentration giving maximal chemotaxis,CD14^+ monocytes,4.5 mM
same,Ca^++ concentration giving peak migration in response to MCP-1,CD14^+ monocytes,4.5 mM
same,Ca^++ concentration at which activation of the receptor is maximal,[2],5 mM
same,Number of more mature BFU-Es,human CD34^+ cells; p=0.017,decrease
same,Level of primitive cells measured by LTC-ICs,human CD34^+ cells; p=0.037,increase
same,Cell surface CCR-2 expression,CCR-2,up-modulation
same,Mean fluorescent intensity -CCR-2 Mean +/− s.e.m.,CCR-2,278 +/− 39 and 296 +/− 35 and 307 +/− 35
